Results published in ChEMBL document CHEMBL1781873, “Synthesis and antibacterial property of pyrrolopyrano quinolinones and pyrroloquinolines” (2011).
Values after ≈ are worked out from the molar mass of the structure shown. Active and inactive are the calls of the source. No cut-off for these calls is given here.

Columns and labels:
Salmonella typhi [1] = experiment: Antibacterial activity against Salmonella typhi at 10 ug after 24 hrs by disc diffusion assay; format: functional, Salmonella enterica subsp. enterica serovar Typhi; conditions: Salmonella enterica, read-out: IZ
Salmonella typhi [2] = experiment: Antibacterial activity against Salmonella typhi at 15 ug after 24 hrs by disc diffusion assay; format: functional, Salmonella enterica subsp. enterica serovar Typhi; conditions: Salmonella enterica, read-out: IZ
Salmonella typhi [3] = experiment: Antibacterial activity against Salmonella typhi at 20 ug after 24 hrs by disc diffusion assay; format: functional, Salmonella enterica subsp. enterica serovar Typhi; conditions: Salmonella enterica, read-out: IZ
Salmonella typhi [4] = experiment: Antibacterial activity against Salmonella typhi at 25 ug after 24 hrs by disc diffusion assay; format: functional, Salmonella enterica subsp. enterica serovar Typhi; conditions: Salmonella enterica, read-out: IZ
Bacillus subtilis [5] = experiment: Antibacterial activity against Bacillus subtilis at 10 ug after 24 hrs by disc diffusion assay; format: functional; conditions: read-out: IZ
Bacillus subtilis [6] = experiment: Antibacterial activity against Bacillus subtilis at 15 ug after 24 hrs by disc diffusion assay; format: functional; conditions: read-out: IZ
Bacillus subtilis [7] = experiment: Antibacterial activity against Bacillus subtilis at 20 ug after 24 hrs by disc diffusion assay; format: functional; conditions: read-out: IZ
Bacillus subtilis [8] = experiment: Antibacterial activity against Bacillus subtilis at 25 ug after 24 hrs by disc diffusion assay; format: functional; conditions: read-out: IZ
Escherichia coli [9] = experiment: Inhibition of Escherichia coli DNA gyrase assessed as inhibition of DNA supercoiling activity using pBR322 DNA as substrate at […] after 3 hrs by agarose gel electrophoresis
Escherichia coli [10] = experiment: Inhibition of Escherichia coli DNA gyrase -mediated DNA relaxation using pBR322 DNA as substrate at […] after 1 hrs by agarose gel electrophoresis
Escherichia coli [11] = experiment: Inhibition of DNA gyrase mRNA expression in Escherichia coli measured up to 24 hrs by RT-PCR; format: functional, organism-based
Staphylococcus aureus [12] = experiment: Antibacterial activity against Staphylococcus aureus after 18 to 20 hrs by broth micro dilution assay; format: functional
Escherichia coli [13] = experiment: Antibacterial activity against Escherichia coli after 18 to 20 hrs by broth micro dilution assay; format: functional
Klebsiella pneumoniae [14] = experiment: Antibacterial activity against Klebsiella pneumoniae after 18 to 20 hrs by broth micro dilution assay; format: functional
Pseudomonas aeruginosa [15] = experiment: Antibacterial activity against Pseudomonas aeruginosa after 18 to 20 hrs by broth micro dilution assay; format: functional
Salmonella typhi [16] = experiment: Antibacterial activity against Salmonella typhi after 18 to 20 hrs by broth micro dilution assay; format: functional, Salmonella enterica subsp. enterica serovar Typhi; conditions: Salmonella enterica
Bacillus subtilis [17] = experiment: Antibacterial activity against Bacillus subtilis after 18 to 20 hrs by broth micro dilution assay; format: functional
Staphylococcus aureus [18] = experiment: Antibacterial activity against Staphylococcus aureus at 5 ug after 24 hrs by disc diffusion assay; format: functional; conditions: read-out: IZ
Staphylococcus aureus [19] = experiment: Antibacterial activity against Staphylococcus aureus at 10 ug after 24 hrs by disc diffusion assay; format: functional; conditions: read-out: IZ
Staphylococcus aureus [20] = experiment: Antibacterial activity against Staphylococcus aureus at 15 ug after 24 hrs by disc diffusion assay; format: functional; conditions: read-out: IZ
Staphylococcus aureus [21] = experiment: Antibacterial activity against Staphylococcus aureus at 20 ug after 24 hrs by disc diffusion assay; format: functional; conditions: read-out: IZ
Staphylococcus aureus [22] = experiment: Antibacterial activity against Staphylococcus aureus at 25 ug after 24 hrs by disc diffusion assay; format: functional; conditions: read-out: IZ
Escherichia coli [23] = experiment: Antibacterial activity against Escherichia coli at 5 ug after 24 hrs by disc diffusion assay; format: functional; conditions: read-out: IZ
Escherichia coli [24] = experiment: Antibacterial activity against Escherichia coli at 10 ug after 24 hrs by disc diffusion assay; format: functional; conditions: read-out: IZ
Escherichia coli [25] = experiment: Antibacterial activity against Escherichia coli at 15 ug after 24 hrs by disc diffusion assay; format: functional; conditions: read-out: IZ
Escherichia coli [26] = experiment: Antibacterial activity against Escherichia coli at 20 ug after 24 hrs by disc diffusion assay; format: functional; conditions: read-out: IZ
Escherichia coli [27] = experiment: Antibacterial activity against Escherichia coli at 25 ug after 24 hrs by disc diffusion assay; format: functional; conditions: read-out: IZ
Pseudomonas aeruginosa [28] = experiment: Antibacterial activity against Pseudomonas aeruginosa at 5 ug after 24 hrs by disc diffusion assay; format: functional; conditions: read-out: IZ
Pseudomonas aeruginosa [29] = experiment: Antibacterial activity against Pseudomonas aeruginosa at 10 ug after 24 hrs by disc diffusion assay; format: functional; conditions: read-out: IZ
Pseudomonas aeruginosa [30] = experiment: Antibacterial activity against Pseudomonas aeruginosa at 15 ug after 24 hrs by disc diffusion assay; format: functional; conditions: read-out: IZ
Pseudomonas aeruginosa [31] = experiment: Antibacterial activity against Pseudomonas aeruginosa at 20 ug after 24 hrs by disc diffusion assay; format: functional; conditions: read-out: IZ
Pseudomonas aeruginosa [32] = experiment: Antibacterial activity against Pseudomonas aeruginosa at 25 ug after 24 hrs by disc diffusion assay; format: functional; conditions: read-out: IZ
Klebsiella pneumoniae [33] = experiment: Antibacterial activity against Klebsiella pneumoniae at 5 ug after 24 hrs by disc diffusion assay; format: functional; conditions: read-out: IZ
Klebsiella pneumoniae [34] = experiment: Antibacterial activity against Klebsiella pneumoniae at 10 ug after 24 hrs by disc diffusion assay; format: functional; conditions: read-out: IZ
Klebsiella pneumoniae [35] = experiment: Antibacterial activity against Klebsiella pneumoniae at 15 ug after 24 hrs by disc diffusion assay; format: functional; conditions: read-out: IZ
Klebsiella pneumoniae [36] = experiment: Antibacterial activity against Klebsiella pneumoniae at 20 ug after 24 hrs by disc diffusion assay; format: functional; conditions: read-out: IZ
Klebsiella pneumoniae [37] = experiment: Antibacterial activity against Klebsiella pneumoniae at 25 ug after 24 hrs by disc diffusion assay; format: functional; conditions: read-out: IZ
Salmonella typhi [38] = experiment: Antibacterial activity against Salmonella typhi at 5 ug after 24 hrs by disc diffusion assay; format: functional, Salmonella enterica subsp. enterica serovar Typhi; conditions: Salmonella enterica, read-out: IZ

`CCC1[C@@H]2Nc3ccc(Cl)cc3C(c3ccccc3)[C@H]2CN1OS(=O)(=O)c1ccc(C)cc1` (stereo partly drawn) gave a zone of inhibition at 10 µg/disc (Salmonella typhi [1]) of 16 mm, a zone of inhibition at 15 µg/disc (Salmonella typhi [2]) of 18 mm and a zone of inhibition at 20 µg/disc (Salmonella typhi [3]) of 20 mm. For the same compound, the zone of inhibition at 25 µg/disc (Salmonella typhi [4]) was 22 mm, the zone of inhibition at 10 µg/disc (Bacillus subtilis [5]) was 7 mm and the zone of inhibition at 15 µg/disc (Bacillus subtilis [6]) was 9 mm. The zone of inhibition at 20 µg/disc (Bacillus subtilis [7]) was 10 mm, the zone of inhibition at 25 µg/disc (Bacillus subtilis [8]) was 12 mm and the “DNA gyrase inhibition (active/inactive)” value (Escherichia coli [9]) was “Active”. For the same compound, the inhibition (Escherichia coli [10]) was “Active”, the “inhibition of gyrase mRNA expression (active/not active)” value (Escherichia coli [11]) was “Active” and the MIC50 (Staphylococcus aureus [12]) was 128 µg/mL (≈ 265 µM). For the same compound, the MIC90 (Staphylococcus aureus [12]) was 128 µg/mL (≈ 265 µM), the MIC50 (Escherichia coli [13]) was 128 µg/mL (≈ 265 µM) and the MIC90 (Escherichia coli [13]) was 128 µg/mL (≈ 265 µM). The MIC50 (Klebsiella pneumoniae [14]) was 128 µg/mL (≈ 265 µM), the MIC90 (Klebsiella pneumoniae [14]) was 128 µg/mL (≈ 265 µM) and the MIC50 (Pseudomonas aeruginosa [15]) was 128 µg/mL (≈ 265 µM). The MIC90 (Pseudomonas aeruginosa [15]) was 128 µg/mL (≈ 265 µM), the MIC50 (Salmonella typhi [16]) was 128 µg/mL (≈ 265 µM) and the MIC90 (Salmonella typhi [16]) was 128 µg/mL (≈ 265 µM). For the same compound, the MIC50 (Bacillus subtilis [17]) was 128 µg/mL (≈ 265 µM), the MIC90 (Bacillus subtilis [17]) was 128 µg/mL (≈ 265 µM) and the zone of inhibition at 5 µg/disc (Staphylococcus aureus [18]) was 9 mm. For the same compound, the zone of inhibition at 10 µg/disc (Staphylococcus aureus [19]) was 12 mm, the zone of inhibition at 15 µg/disc (Staphylococcus aureus [20]) was 13 mm and the zone of inhibition at 20 µg/disc (Staphylococcus aureus [21]) was 14 mm. It also gave a zone of inhibition at 25 µg/disc (Staphylococcus aureus [22]) of 17 mm, a zone of inhibition at 5 µg/disc (Escherichia coli [23]) of 10 mm and a zone of inhibition at 10 µg/disc (Escherichia coli [24]) of 16 mm. The zone of inhibition at 15 µg/disc (Escherichia coli [25]) was 18 mm, the zone of inhibition at 20 µg/disc (Escherichia coli [26]) was 20 mm and the zone of inhibition at 25 µg/disc (Escherichia coli [27]) was 23 mm. For the same compound, the zone of inhibition at 5 µg/disc (Pseudomonas aeruginosa [28]) was 10 mm, the zone of inhibition at 10 µg/disc (Pseudomonas aeruginosa [29]) was 16 mm and the zone of inhibition at 15 µg/disc (Pseudomonas aeruginosa [30]) was 17 mm. It also gave a zone of inhibition at 20 µg/disc (Pseudomonas aeruginosa [31]) of 22 mm, a zone of inhibition at 25 µg/disc (Pseudomonas aeruginosa [32]) of 24 mm and a zone of inhibition at 5 µg/disc (Klebsiella pneumoniae [33]) of 20 mm. For the same compound, the zone of inhibition at 10 µg/disc (Klebsiella pneumoniae [34]) was 26 mm, the zone of inhibition at 15 µg/disc (Klebsiella pneumoniae [35]) was 30 mm and the zone of inhibition at 20 µg/disc (Klebsiella pneumoniae [36]) was 34 mm. It also gave a zone of inhibition at 25 µg/disc (Klebsiella pneumoniae [37]) of 36 mm and a zone of inhibition at 5 µg/disc (Salmonella typhi [38]) of 10 mm.

`CCC1[C@@H]2Nc3ccc(Br)cc3C(c3ccccc3)[C@H]2CN1OS(=O)(=O)c1ccc(C)cc1` (stereo partly drawn) showed a zone of inhibition at 10 µg/disc (Salmonella typhi [1]) of 16 mm, a zone of inhibition at 15 µg/disc (Salmonella typhi [2]) of 18 mm and a zone of inhibition at 20 µg/disc (Salmonella typhi [3]) of 22 mm. It also gave a zone of inhibition at 25 µg/disc (Salmonella typhi [4]) of 24 mm, a zone of inhibition at 10 µg/disc (Bacillus subtilis [5]) of 8 mm and a zone of inhibition at 15 µg/disc (Bacillus subtilis [6]) of 9 mm. For the same compound, the zone of inhibition at 20 µg/disc (Bacillus subtilis [7]) was 10 mm, the zone of inhibition at 25 µg/disc (Bacillus subtilis [8]) was 11 mm and the “DNA gyrase inhibition (active/inactive)” value (Escherichia coli [9]) was “Active”. The inhibition (Escherichia coli [10]) was “Active”, the “inhibition of gyrase mRNA expression (active/not active)” value (Escherichia coli [11]) was “inactive” and the MIC50 (Staphylococcus aureus [12]) was 0.25 µg/mL (≈ 0.474 µM). For the same compound, the MIC90 (Staphylococcus aureus [12]) was 0.5 µg/mL (≈ 0.948 µM), the MIC50 (Escherichia coli [13]) was 0.25 µg/mL (≈ 0.474 µM) and the MIC90 (Escherichia coli [13]) was 0.5 µg/mL (≈ 0.948 µM). The MIC50 (Klebsiella pneumoniae [14]) was 0.25 µg/mL (≈ 0.474 µM), the MIC90 (Klebsiella pneumoniae [14]) was 0.5 µg/mL (≈ 0.948 µM) and the MIC50 (Pseudomonas aeruginosa [15]) was 0.25 µg/mL (≈ 0.474 µM). For the same compound, the MIC90 (Pseudomonas aeruginosa [15]) was 0.5 µg/mL (≈ 0.948 µM), the MIC50 (Salmonella typhi [16]) was 0.25 µg/mL (≈ 0.474 µM) and the MIC90 (Salmonella typhi [16]) was 0.5 µg/mL (≈ 0.948 µM). It also gave an MIC50 (Bacillus subtilis [17]) of 0.25 µg/mL (≈ 0.474 µM), an MIC90 (Bacillus subtilis [17]) of 0.5 µg/mL (≈ 0.948 µM) and a zone of inhibition at 5 µg/disc (Staphylococcus aureus [18]) of 20 mm. It also gave a zone of inhibition at 10 µg/disc (Staphylococcus aureus [19]) of 24 mm, a zone of inhibition at 15 µg/disc (Staphylococcus aureus [20]) of 26 mm and a zone of inhibition at 20 µg/disc (Staphylococcus aureus [21]) of 30 mm. The zone of inhibition at 25 µg/disc (Staphylococcus aureus [22]) was 36 mm, the zone of inhibition at 5 µg/disc (Escherichia coli [23]) was 12 mm and the zone of inhibition at 10 µg/disc (Escherichia coli [24]) was 14 mm. For the same compound, the zone of inhibition at 15 µg/disc (Escherichia coli [25]) was 16 mm, the zone of inhibition at 20 µg/disc (Escherichia coli [26]) was 22 mm and the zone of inhibition at 25 µg/disc (Escherichia coli [27]) was 23 mm. It also gave a zone of inhibition at 5 µg/disc (Pseudomonas aeruginosa [28]) of 24 mm, a zone of inhibition at 10 µg/disc (Pseudomonas aeruginosa [29]) of 26 mm and a zone of inhibition at 15 µg/disc (Pseudomonas aeruginosa [30]) of 28 mm. It also gave a zone of inhibition at 20 µg/disc (Pseudomonas aeruginosa [31]) of 34 mm, a zone of inhibition at 25 µg/disc (Pseudomonas aeruginosa [32]) of 36 mm and a zone of inhibition at 5 µg/disc (Klebsiella pneumoniae [33]) of 10 mm. The zone of inhibition at 10 µg/disc (Klebsiella pneumoniae [34]) was 14 mm, the zone of inhibition at 15 µg/disc (Klebsiella pneumoniae [35]) was 16 mm and the zone of inhibition at 20 µg/disc (Klebsiella pneumoniae [36]) was 24 mm. The zone of inhibition at 25 µg/disc (Klebsiella pneumoniae [37]) was 26 mm and the zone of inhibition at 5 µg/disc (Salmonella typhi [38]) was 10 mm.
